In patent US7560482B2, “Inhibitors of plasmepsins” (The Johns Hopkins University, priority 2001, dated 2009):
Like-named read-outs stand apart in the source and are kept apart here.

How the values were obtained:
[1] = system: chloroquine-sensitive Plasmodium falciparum (NF54); test: malaria-infected human red blood cell assay, [3H]hypoxanthine incorporation; type: cell-based; settings: P. falciparum NF54, 48 h + 20 h incubation; read-out: IC50, killing of malaria parasite in infected red blood cell assay
Procedure: The ability of some KNI compounds to kill the malaria parasite was evaluated by measuring the IC50 in a malaria-infected human red blood cell assay. Activity was determined by measuring the incorporation of [^3H]hypoxanthine. Briefly, chloroquine-sensitive Plasmodium falciparum (NF54) were maintained in a 2.4% suspension of type O^+ human erythrocytes in RPMI 1640, supplemented with 25 mM HEPES, 27 mM NaHCO3, and 10% heat-inactivated human type O^+ serum, under 3% O2, 4% CO2, and 93% N2. 20 mM stock solutions of KNI-764 and KNI-727 and KNI-840 were prepared in DMSODMSO solutions were diluted 500 fold in medium, serially diluted in 0.2% DMSO in medium, then 100 μl aliquots were pipetted into microtiter plate wells. Provisional EC50 values were obtained in a survey of ten 5-fold dilutions yielding final concentrations (in quadruplicate) of 0.00001-20 μM. Plates included 8 wells of no drug controls (4 with and 4 without DMSO) and 4 wells in uninfected erythrocytes. […] The filters were washed four times with 3 ml water per sample spot, dried under a heat lamp, and counted in scintillation cocktail. Decays per minute values were downloaded and analyzed in order to yield the mean and standard deviation at each drug concentration. […]

[2] = biological target: T1, plasmepsin II from Plasmodium falciparum (Plm II) (Plasmodium falciparum, UniProt P46925); test: Plasmepsin II inhibition assay, hydrolysis of chromogenic substrate; type: biochemical; settings: for Discrimination Factor: Fold Selectivity for Plasmepsin II over Cathepsin D: ratio of the Ki for Cathepsin D to the Ki for Plasmepsin II
T1 construct: made in house; host or cells: Escherichia coli
T1 sequence (P46925 125-453): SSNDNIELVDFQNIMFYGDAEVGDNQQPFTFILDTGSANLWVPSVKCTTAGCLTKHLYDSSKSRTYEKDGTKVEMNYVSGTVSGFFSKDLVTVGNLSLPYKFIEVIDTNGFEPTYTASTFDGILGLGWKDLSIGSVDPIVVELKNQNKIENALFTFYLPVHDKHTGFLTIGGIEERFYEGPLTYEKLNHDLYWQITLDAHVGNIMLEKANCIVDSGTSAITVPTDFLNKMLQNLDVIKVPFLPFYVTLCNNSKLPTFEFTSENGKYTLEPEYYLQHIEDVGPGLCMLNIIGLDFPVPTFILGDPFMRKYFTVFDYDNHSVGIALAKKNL
Procedure: FIG. 7A-C. Inhibition of Plasmepsin II from Plasmodium falciparum by KNI-10033, KNI-10030 and KNI-10006 at 20° C. in 10 mM sodium citrate, 100 mM NaCl, 2% DMSO, pH 4.0. The inhibition constants are 3 nM, 11 nM and 0.5 rLM respectively.
(§1) The specific activity of plasmepsin II from Plasmodium falciparum (Plm II) cloned in and purified from Escherchia coli and commercially available human Cathepsin D were measured by following the hydrolysis of the chromogenic substrate Ala-Leu-Glu-Arg-Thr-nPhe-Phe-Ser-Phe-Pro-Thr-OH (California Peptide Research Inc., Napa, Calif.). The decrease in absorbance upon hydrolysis is monitored at 300 nm. Typical Plasmepsin II preparations hydrolyze chromogenic substrate at 4-5 s^−1 at 37° C. The inhibition assays were performed at 25° C. in 10 mM sodium formate, 2% DMSO, pH 4.0. These pH conditions mimic the conditions in the food vacuole of the parasite. […] Inhibition constants (Ki) for the inhibitors are obtained at the desired temperature and solvent conditions by measuring the rate of substrate hydrolysis at increasing amounts of inhibitors. Exemplary results from three compounds (KNI-10033, KNI-10030 and KNI-10006) are shown in FIG. 7A-C, and the results obtained with all KNI compounds tested are given in Table 1.

human Cathepsin D = biological target: T2, human Cathepsin D (Homo sapiens, UniProt P07339); test: Cathepsin D inhibition assay, hydrolysis of chromogenic substrate; type: biochemical
T2 construct: purchased
T2 sequence (P07339 65-412): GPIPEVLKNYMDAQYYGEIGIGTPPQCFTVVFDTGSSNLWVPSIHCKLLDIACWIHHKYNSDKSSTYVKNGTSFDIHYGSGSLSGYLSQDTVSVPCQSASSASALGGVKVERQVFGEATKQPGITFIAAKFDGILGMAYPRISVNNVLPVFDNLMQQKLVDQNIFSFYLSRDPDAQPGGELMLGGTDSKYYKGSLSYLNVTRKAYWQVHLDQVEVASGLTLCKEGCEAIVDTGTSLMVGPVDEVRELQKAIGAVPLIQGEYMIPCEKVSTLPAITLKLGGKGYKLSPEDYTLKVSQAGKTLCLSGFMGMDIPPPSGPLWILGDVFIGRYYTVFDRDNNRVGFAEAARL
Procedure: as §1

[3] = 25° C., 10 mM sodium formate, 2% DMSO, pH 4.0, fit to competitive inhibition, read-out: Ki Plm II
[4] = Table 2, read-out: Ki Plasmepsin II
[5] = 25° C., 10 mM sodium formate, 2% DMSO, pH 4.0, fit to competitive inhibition, read-out: Ki CatD
[6] = Table 2, read-out: Ki Cathepsin D

SMILES	inhibition constants against Plasmepsin II, in words [2]	Ki [2, 3]	Ki [2, 4]	Discrimination Factor: Fold Selectivity for Plasmepsin II over Cathepsin D [2]	Ki (human Cathepsin D; [5])	Ki (human Cathepsin D; [6])	discrimination factor / Cathepsin D selectivity ([2]; Plasmepsin II versus Cathepsin D, fold)	Ki ([2]; read-out: Ki (Plasmepsin II), unit inferred)	IC50 [1]
Cc1ccccc1CNC(=O)[C@H]1N(C(=O)[C@@H](O)[C@H](Cc2ccccc2)NC(=O)c2cccc(O)c2C)CSC1(C)C [KNI-764]	nanomolar and subnanomolar range	30 ± 9 nM	30 nM	~7	201 ± 20 nM	201 nM			10000 nM
Cc1ccccc1CNC(=O)[C@H]1N(C(=O)[C@@H](O)[C@H](Cc2ccccc2)NC(=O)COc2c(C)cccc2C)CSC1(C)C [KNI-840]	nanomolar and subnanomolar range	20 ± 10 nM	20 nM	4	80 ± 90 nM	80 nM	4	~20 nM	10000 nM
Cc1cccc(C)c1OCC(=O)N[C@@H](Cc1ccccc1)[C@H](O)C(=O)N1CSC(C)(C)[C@H]1C(=O)N[C@H](CO)c1ccccc1 [KNI-10043]	nanomolar and subnanomolar range	22 ± 5 nM	22 nM	2.4	53 ± 8 nM	53 nM			
Cc1cccc(C)c1OCC(=O)NC(Cc1ccccc1)C(O)C(=O)N1CSC(C)(C)C1C(=O)NC(CO)c1ccccc1 (stereo not shown) [KNI-10044]		532 ± 70 nM			1040 ± 178 nM				
Cc1cccc(C)c1OCC(=O)N[C@@H](Cc1ccccc1)[C@H](O)C(=O)N1CSC(C)(C)[C@H]1C(=O)NCc1ccccc1 [KNI-10046]		96 ± 20 nM			260 ± 23 nM				
Cc1cccc(C)c1OCC(=O)N[C@@H](Cc1ccccc1)[C@H](O)C(=O)N1CSC(C)(C)[C@H]1C(=O)NCc1ccccc1O [KNI-10047]		55 ± 7 nM			252 ± 53 nM				
Cc1cccc(C)c1OCC(=O)N[C@@H](Cc1ccccc1)[C@H](O)C(=O)N1CSC(C)(C)[C@H]1C(=O)NCc1cccc(O)c1 [KNI-10048]		99 ± 14 nM			771 ± 97 nM				
Cc1ccc(CNC(=O)[C@H]2N(C(=O)[C@@H](O)[C@H](Cc3ccccc3)NC(=O)COc3c(C)cccc3C)CSC2(C)C)cc1 [KNI-10052]		572 ± 54 nM			1320 ± 152 nM				
Cc1cccc(CNC(=O)[C@H]2N(C(=O)[C@@H](O)[C@H](Cc3ccccc3)NC(=O)COc3c(C)cccc3C)CSC2(C)C)c1 [KNI-10053]	nanomolar and subnanomolar range	41 ± 7 nM	41 nM	~9	360 ± 54 nM	360 nM			
Cc1cccc(C)c1OCC(=O)NC(Cc1ccccc1)C(O)C(=O)N1CSC(C)(C)C1C(=O)NCc1ccc(O)cc1 (stereo not shown) [KNI-10054]		273 ± 41 nM			1640 ± 146 nM				
CC(C)(C)NC(=O)C1N(C(=O)C(O)C(Cc2ccccc2)NC(=O)C(CCC(N)=O)NC(=O)COc2cccc3cnccc23)CSC1(C)C (stereo not shown) [KNI-10055]		1170 ± 71 nM			6280 ± 981 nM				

Further lines, with some results ahead:

inhibition constants against Plasmepsin II, in words [2]	Ki [2, 3]	Ki [2, 4]	Discrimination Factor: Fold Selectivity for Plasmepsin II over Cathepsin D [2]	Ki (human Cathepsin D; [5])	Ki (human Cathepsin D; [6])	discrimination factor / Cathepsin D selectivity ([2]; Plasmepsin II versus Cathepsin D, fold)	Ki ([2]; read-out: Ki (Plasmepsin II), unit inferred)	SMILES	IC50 [1]
	1080 ± 165 nM			6160 ± 671 nM				CC(C)(C)NC(=O)[C@H]1N(C(=O)[C@@H](O)[C@H](Cc2ccccc2)NC(=O)COc2cccc(Cl)c2)CSC1(C)C [KNI-10045]	
	1510 ± 125 nM			2580 ± 682 nM				CC(C)C(NC(=O)OCc1ccccc1)C(=O)NC(Cc1ccccc1)C(O)C(=O)N1CSC(C)(C)C1C(=O)NC(C)(C)C (stereo not shown) [KNI-10049]	
	186 ± 14 nM			6510 ± 1220 nM				CC(C)(C)NC(=O)[C@H]1N(C(=O)[C@@H](O)[C@H](Cc2ccccc2)NC(=O)[C@H](Cc2ccccc2)NC(=O)COc2cccc3cnccc23)CSC1(C)C [KNI-10051]	
	1770 ± 154 nM			1280 ± 161 nM				CC(C)C(NC(=O)COc1ccccc1)C(=O)NC(Cc1ccccc1)C(O)C(=O)N1CSC(C)(C)C1C(=O)NC(C)(C)C (stereo not shown) [KNI-10056]	
	428 ± 21 nM			5300 ± 633 nM				CCSC[C@H](NC(=O)COc1cccc2cnccc12)C(=O)N[C@@H](Cc1ccccc1)[C@H](O)C(=O)N1CSC(C)(C)[C@H]1C(=O)NC(C)(C)C [KNI-10057]	
